According to patent publication US12692221B2 (priority 2024, dated 2026):

Assays:
alpha1D (h) = molecular target: T1, alpha1D (h) (Homo sapiens, UniProt P25100); assay: Radioligand binding alpha1D (h) (antagonist radioligand), [^3H]prazosin, CHO cells
T1 construct: expressed in transfected cells; host or cells: CHO cells
T1 sequence (P25100 1-572): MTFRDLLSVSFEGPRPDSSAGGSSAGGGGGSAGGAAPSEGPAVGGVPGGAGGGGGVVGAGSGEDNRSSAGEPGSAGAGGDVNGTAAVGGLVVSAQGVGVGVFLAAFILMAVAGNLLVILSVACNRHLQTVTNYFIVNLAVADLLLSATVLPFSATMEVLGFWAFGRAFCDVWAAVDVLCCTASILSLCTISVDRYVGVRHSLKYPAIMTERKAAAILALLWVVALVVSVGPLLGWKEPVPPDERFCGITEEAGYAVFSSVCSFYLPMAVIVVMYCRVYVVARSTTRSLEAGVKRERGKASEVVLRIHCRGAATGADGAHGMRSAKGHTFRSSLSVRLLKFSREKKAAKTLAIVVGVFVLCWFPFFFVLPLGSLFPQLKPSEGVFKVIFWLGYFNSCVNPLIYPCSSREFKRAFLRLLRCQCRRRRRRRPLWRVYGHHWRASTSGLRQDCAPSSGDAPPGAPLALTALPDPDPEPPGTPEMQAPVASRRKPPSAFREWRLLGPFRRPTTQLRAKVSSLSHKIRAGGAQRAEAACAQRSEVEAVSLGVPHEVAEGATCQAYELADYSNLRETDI
Protocol: (§1) Methods—Binding Assays: In vitro binding assays were performed using human recombinant receptors expressed in mammalian cell lines. Receptors were expressed in either HEK-293 or CHO cells depending on the target, and assay conditions (radioligand, concentration, nonspecific competitor, temperature, and incubation time) were optimized for each receptor. All assays were conducted in triplicate, and specific binding was quantified by scintillation counting as the detection method for each listed assay.
(§2) Specific binding was expressed as a percentage of control-specific binding, and percent inhibition was calculated using the formula in Ex. 8 above. Half-maximal inhibitory concentrations (IC50) were determined by non-linear regression analysis of the inhibition curves using the Hill equation (see Ex. 8). Inhibition constants (Ki) were calculated using the Cheng-Prusoff equation (see Ex. 8). KD values used in these calculations had been previously established for each receptor under the assay conditions (see Table 6). Data analysis was performed using software developed at Cerep and validated against SigmaPlot 4.0 for Windows.

5-HT transporter (h) = molecular target: T2, 5-HT transporter (h) (Homo sapiens, UniProt P31645); assay: Radioligand binding 5-HT transporter (h) (antagonist radioligand), [^3H]imipramine, CHO cells
T2 construct: expressed in transfected cells; host or cells: CHO cells
Protocol: as §1, §2

delta (DOP) (h) = molecular target: T3, delta (DOP) (h) (Homo sapiens, UniProt P41143); assay: Radioligand binding delta (DOP) (h) (agonist radioligand), [^3H]DALE, Chem-1 RBL; conditions: delta (DOP) (h) (agonist radiolig.)
T3 construct: expressed in transfected cells; host or cells: Chem-1 RBL
Protocol: as §1, §2

Lck kinase (h) = molecular target: T4, Lck kinase (h) (Homo sapiens, UniProt P06239); assay: Enzyme assay Lck kinase (h), LANCE; type: biochemical
T4 construct: host or cells: insect cells
Protocol: (§3) Methods—Enzyme and Uptake Assays: In vitro enzyme and uptake assays were conducted by Eurofins Discovery using human recombinant enzymes expressed in various mammalian and insect cell lines. Enzymatic activity was measured using appropriate substrates or tracers under conditions optimized for each target, as detailed in Table 7. Reactions were incubated at room temperature for a defined duration and terminated according to established protocols. The measured components (either enzymatic products or remaining substrate) were quantified using fluorimetry, photometry, scintillation counting, or LANCE technology, depending on the assay. Assay-specific parameters, including substrate identity, cell line source, incubation time, and detection method, are provided in Table 7.
(§4) All measurements were performed in technical replicates to ensure reproducibility and data quality.
(§5) Results were expressed both as a percentage of control-specific activity and as percent inhibition of control-specific activity. Percent activity was calculated as (measured specific activity/control specific activity)×100, and percent inhibition as 100−[(measured specific activity/control specific activity)×100], based on values obtained in the presence of test compounds. IC50 and EC50 values, along with Hill coefficients (nH), were determined by nonlinear regression analysis of inhibition or concentration-response curves generated from mean replicate values. Hill curve fitting was performed as previously described using software developed at Cerep and validated against SigmaPlot® 4.0 for Windows® (© 1997 by SPSS Inc.).

5-HT3 (h) = molecular target: T5, 5-HT3 (h) (Homo sapiens, UniProt P46098); assay: Radioligand binding 5-HT3 (h) (antagonist radioligand), [^3H]BRL 43694, CHO cells
T5 construct: expressed in transfected cells; host or cells: CHO cells
T5 sequence (P46098 24-478): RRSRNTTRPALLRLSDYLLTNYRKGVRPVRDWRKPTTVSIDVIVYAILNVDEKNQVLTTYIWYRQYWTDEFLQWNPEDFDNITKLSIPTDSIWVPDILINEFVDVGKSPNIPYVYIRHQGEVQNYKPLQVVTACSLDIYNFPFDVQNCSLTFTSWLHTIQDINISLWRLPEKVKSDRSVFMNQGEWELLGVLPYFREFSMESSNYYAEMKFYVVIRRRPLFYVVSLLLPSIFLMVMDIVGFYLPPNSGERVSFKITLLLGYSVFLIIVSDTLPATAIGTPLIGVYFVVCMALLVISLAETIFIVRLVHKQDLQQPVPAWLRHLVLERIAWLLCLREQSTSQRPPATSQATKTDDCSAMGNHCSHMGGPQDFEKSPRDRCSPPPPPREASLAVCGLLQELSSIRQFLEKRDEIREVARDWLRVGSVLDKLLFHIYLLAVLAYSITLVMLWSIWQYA
Protocol: as §1, §2

PDE4D2(h) = molecular target: T6, PDE4D2(h) (Homo sapiens, UniProt Q08499); assay: Enzyme assay PDE4D2(h), [3H]cAMP, scintillation counting; type: biochemical
T6 construct: host or cells: Sf9 cells
Protocol: as §3, §4, §5

beta2 (h) = molecular target: T7, beta2 (h) (Homo sapiens, UniProt P07550); assay: Radioligand binding beta2 (h) (antagonist radioligand), [^3H](−)CGP 12177, CHO cells
T7 construct: expressed in transfected cells; host or cells: CHO cells
Protocol: as §1, §2

5-HT1B (h) = molecular target: T8, 5-HT1B (h) (Homo sapiens, UniProt P28222); assay: Radioligand binding 5-HT1B (h) (antagonist radioligand), [^3H]GR125743, Chem-1 RBL cells
T8 construct: expressed in transfected cells; host or cells: Chem-1 RBL cells

CCK1 (CCKA) (h) = molecular target: T9, CCK1 (CCKA) (h) (Homo sapiens, UniProt P32238); assay: Radioligand binding CCK1 (CCKA) (h) (agonist radioligand), [^125I]CCK-8s, CHO cells; conditions: CCK1 (CCKA) (h) (agonist radiolig.)
T9 construct: expressed in transfected cells; host or cells: CHO cells
T9 sequence (P32238 1-428): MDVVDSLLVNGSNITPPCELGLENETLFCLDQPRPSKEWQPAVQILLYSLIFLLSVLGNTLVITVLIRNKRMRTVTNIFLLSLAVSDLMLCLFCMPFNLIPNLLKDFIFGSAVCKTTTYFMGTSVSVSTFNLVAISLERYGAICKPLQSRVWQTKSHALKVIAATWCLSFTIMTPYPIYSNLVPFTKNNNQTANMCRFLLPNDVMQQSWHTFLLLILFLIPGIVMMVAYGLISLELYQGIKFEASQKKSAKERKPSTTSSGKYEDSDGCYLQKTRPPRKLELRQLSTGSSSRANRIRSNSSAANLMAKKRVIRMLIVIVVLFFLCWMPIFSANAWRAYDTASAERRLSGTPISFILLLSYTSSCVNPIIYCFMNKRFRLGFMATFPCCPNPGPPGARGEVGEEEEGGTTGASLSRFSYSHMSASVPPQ
Protocol: as §1, §2

CB2 (h) = molecular target: T10, CB2 (h) (Homo sapiens, UniProt P34972); assay: Radioligand binding CB2 (h) (agonist radioligand), [^3H]WIN 55212-2, CHO cells
T10 construct: expressed in transfected cells; host or cells: CHO cells
Protocol: as §1, §2

T8 sequence (P28222 whole entry): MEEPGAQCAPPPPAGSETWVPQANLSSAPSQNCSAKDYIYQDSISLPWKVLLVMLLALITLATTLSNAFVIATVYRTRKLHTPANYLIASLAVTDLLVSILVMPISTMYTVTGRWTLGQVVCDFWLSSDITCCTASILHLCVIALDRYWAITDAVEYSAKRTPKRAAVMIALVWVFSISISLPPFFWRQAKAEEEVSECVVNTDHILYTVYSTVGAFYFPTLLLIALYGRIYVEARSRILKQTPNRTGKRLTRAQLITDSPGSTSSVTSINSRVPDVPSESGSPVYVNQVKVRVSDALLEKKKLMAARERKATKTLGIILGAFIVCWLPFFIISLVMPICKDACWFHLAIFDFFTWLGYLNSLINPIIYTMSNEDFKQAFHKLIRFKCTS
T3 sequence (P41143 whole entry): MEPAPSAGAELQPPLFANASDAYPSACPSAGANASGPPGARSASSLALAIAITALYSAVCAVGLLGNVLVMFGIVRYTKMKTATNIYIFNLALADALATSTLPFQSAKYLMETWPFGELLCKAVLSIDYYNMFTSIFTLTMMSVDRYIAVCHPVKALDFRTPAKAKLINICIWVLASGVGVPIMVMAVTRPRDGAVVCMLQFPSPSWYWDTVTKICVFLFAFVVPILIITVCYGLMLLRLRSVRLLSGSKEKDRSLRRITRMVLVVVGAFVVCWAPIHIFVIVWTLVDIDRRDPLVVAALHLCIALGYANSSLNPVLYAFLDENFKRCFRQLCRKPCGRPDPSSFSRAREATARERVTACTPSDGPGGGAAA
T2 sequence (P31645 whole entry): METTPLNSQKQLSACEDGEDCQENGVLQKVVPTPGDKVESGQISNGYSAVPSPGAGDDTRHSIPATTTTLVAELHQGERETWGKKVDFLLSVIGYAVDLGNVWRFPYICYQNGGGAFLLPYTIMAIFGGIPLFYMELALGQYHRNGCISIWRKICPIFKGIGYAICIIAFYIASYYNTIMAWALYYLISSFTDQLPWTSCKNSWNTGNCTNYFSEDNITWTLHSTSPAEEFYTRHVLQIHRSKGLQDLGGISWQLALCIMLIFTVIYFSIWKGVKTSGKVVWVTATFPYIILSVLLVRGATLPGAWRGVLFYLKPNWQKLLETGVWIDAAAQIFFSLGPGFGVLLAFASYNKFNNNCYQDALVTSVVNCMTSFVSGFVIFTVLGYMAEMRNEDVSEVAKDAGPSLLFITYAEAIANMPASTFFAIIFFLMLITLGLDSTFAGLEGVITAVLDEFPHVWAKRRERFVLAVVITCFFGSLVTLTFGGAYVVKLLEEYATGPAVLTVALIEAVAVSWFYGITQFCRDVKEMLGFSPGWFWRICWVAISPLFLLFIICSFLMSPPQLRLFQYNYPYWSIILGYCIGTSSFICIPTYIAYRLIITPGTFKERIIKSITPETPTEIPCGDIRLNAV
T6 sequence (Q08499 303-809 limits assumed): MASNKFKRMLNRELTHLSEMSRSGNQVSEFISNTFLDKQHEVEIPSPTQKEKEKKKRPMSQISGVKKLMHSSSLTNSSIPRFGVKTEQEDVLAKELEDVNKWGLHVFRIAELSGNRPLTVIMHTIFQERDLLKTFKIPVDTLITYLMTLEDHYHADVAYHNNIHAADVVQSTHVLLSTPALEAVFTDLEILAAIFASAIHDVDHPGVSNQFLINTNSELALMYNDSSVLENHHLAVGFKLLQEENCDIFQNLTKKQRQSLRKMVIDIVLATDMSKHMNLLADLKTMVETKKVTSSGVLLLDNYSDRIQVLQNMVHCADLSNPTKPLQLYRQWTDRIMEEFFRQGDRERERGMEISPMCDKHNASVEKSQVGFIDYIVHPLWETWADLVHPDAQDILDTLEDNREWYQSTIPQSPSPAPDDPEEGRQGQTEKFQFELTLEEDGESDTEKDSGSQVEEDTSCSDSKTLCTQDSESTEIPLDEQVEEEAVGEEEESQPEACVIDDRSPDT
T4 sequence (P06239 whole entry): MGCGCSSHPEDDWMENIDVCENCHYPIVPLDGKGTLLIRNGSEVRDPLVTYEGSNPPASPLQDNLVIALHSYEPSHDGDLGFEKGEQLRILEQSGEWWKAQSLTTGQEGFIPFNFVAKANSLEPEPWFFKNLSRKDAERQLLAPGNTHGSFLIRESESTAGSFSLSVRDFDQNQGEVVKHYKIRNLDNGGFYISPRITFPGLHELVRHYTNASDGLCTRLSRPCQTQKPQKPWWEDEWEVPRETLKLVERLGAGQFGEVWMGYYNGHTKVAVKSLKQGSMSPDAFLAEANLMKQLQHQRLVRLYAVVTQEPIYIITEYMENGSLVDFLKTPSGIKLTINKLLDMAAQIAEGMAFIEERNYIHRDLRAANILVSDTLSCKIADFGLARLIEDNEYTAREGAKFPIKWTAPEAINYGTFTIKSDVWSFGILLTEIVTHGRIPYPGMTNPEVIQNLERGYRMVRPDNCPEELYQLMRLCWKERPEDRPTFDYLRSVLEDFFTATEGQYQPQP
T10 sequence (P34972 whole entry): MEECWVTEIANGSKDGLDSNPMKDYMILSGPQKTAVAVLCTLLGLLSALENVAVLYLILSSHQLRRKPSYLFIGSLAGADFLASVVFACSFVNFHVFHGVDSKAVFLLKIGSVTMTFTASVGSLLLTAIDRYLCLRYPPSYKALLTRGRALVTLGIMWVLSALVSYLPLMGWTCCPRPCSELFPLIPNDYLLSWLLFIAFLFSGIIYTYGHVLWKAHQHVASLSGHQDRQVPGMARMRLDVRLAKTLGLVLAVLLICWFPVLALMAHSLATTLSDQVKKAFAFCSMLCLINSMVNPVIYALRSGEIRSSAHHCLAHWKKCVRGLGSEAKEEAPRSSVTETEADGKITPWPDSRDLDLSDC
T7 sequence (P07550 whole entry): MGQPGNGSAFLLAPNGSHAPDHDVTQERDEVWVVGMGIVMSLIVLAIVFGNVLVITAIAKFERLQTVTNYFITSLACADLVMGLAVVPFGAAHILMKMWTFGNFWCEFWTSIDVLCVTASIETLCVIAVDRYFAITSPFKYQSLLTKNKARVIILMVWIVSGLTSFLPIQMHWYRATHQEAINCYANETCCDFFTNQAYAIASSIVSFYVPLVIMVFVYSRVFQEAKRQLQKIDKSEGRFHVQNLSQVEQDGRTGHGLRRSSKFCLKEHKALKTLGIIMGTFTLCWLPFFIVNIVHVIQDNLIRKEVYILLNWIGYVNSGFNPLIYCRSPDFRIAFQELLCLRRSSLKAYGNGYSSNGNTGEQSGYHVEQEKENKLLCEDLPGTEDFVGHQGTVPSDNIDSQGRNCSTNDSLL

SMILES	Mean Percent Inhibition of Control Specific Binding (alpha1D (h)) [%]	Mean Percent Inhibition of Control Specific Binding (5-HT transporter (h)) [%]	Mean Percent Inhibition of Control Specific Binding (delta (DOP) (h)) [%]	Mean Percent Inhibition of Control Specific Binding (Lck kinase (h)) [%]	Mean Percent Inhibition of Control Specific Binding (5-HT3 (h)) [%]	Mean Percent Inhibition of Control Specific Binding (PDE4D2(h)) [%]	Mean Percent Inhibition of Control Specific Binding (beta2 (h)) [%]	Mean Percent Inhibition of Control Specific Binding (5-HT1B (h)) [%]	Mean Percent Inhibition of Control Specific Binding (CCK1 (CCKA) (h)) [%]	Mean Percent Inhibition of Control Specific Binding (CB2 (h)) [%]
COCc1cc(CCN)c(O)cc1CC(C)C [2CiBu-2OH-5MM, 2-(2-aminoethyl)-5-isobutyl-4-(methoxymethyl)phenol]	11.8	15.0	19.5	12.8	−3.9	67.4	42.1	12.6	−0.1	−6.0
COCCc1cc(CCN)c(OC)cc1Br [Compound 2CB-5ME, reference compound]	10.0	8.6	9.7	23.3	−1.6	−5.7	31.8	91.4	3.3	−22.8
COCc1cc(CCN)c(OC)cc1Br [Compound 2CB-5MM, 2-(4-bromo-2-methoxy-5-(methoxymethyl)phenyl)ethan-1-amine]	9.5	−1.3	8.5	5.9	11.6	−0.5	18.8	74.2	−11.5	−14.9
COCc1cc(CCN)c(OC)cc1CC(C)C [Compound 2CiBu-5MM, 2-[4-isobutyl-2-methoxy-5-(methoxymethyl)phenyl]ethanamine]	0.5	4.9	11.9	−6.6	2.6	3.0	38.3	57.3	12.2	17.8
